Measurements published in patent US20080267948A1, “Croos-B Structure Binding Compounds” (priority 2005, published 2008).
Entries after “also recorded” stand apart in the source; their conditions may differ. Where two headings read alike, the source gives them in different places.

Columns and labels:
tPA/plasminogen [1] = target: T1, tPA/plasminogen (Homo sapiens, UniProt P00750); test: tPA/plasminogen activation by OVA heated in the presence of compounds (substrate PNAPEP1751); type: biochemical; conditions: 25 μg/ml OVA, 25 μg/ml compound, […] DMSO
T1 construct: purchased Boehringer Ingelheim Actilyse
Summary of the method: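 Ovalbumin heated alone in PBS/1% DMSO (positive control) or with compounds at 1 mg/ml, then used 40-fold diluted in a tPA/plasminogen activation assay; buffer without OVA as negative control. Chromogenic substrate conversion read at 405 nm, with compound interference at 405 nm checked; signals related to control.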

Aβ = target: T2, Aβ (Homo sapiens, UniProt P05067, E693Q); test: Binding of Aβ from solution to immobilized small compounds; conditions: Aβ 100 μg/ml
T2 construct: Lyophilized human amyloid-β(1-40) with E22Q mutation ‘Dutch type’; purchased Peptide facility, Dutch Cancer Institute, Amsterdam; host or cells: synthetic peptide
Method: (§1) To test the ability of the twelve selected compounds (see Table 7) to bind to misfolded proteins, […] Greiner Microlon high binding plates, Nunc amino Immobilizer plates and Nunc Maxisorp plates. Compounds were coated in 100 mM NaHCO3 pH 9.6, 50 μl/well, 1 h at room temperature with agitation. As a control, wells were coated with buffer only. After blocking of the plates, wells were overlayed with solutions of 0.1/1/10 μg/ml Hb-AGE or 10/100 μg/ml Aβ, in binding buffer (PBS/0.1% Tween20). After washing, binding of Hb-AGE was assessed by overlaying wells with 1 μg/ml hybridoma antibody 4B5, which binds to glycations(^2), followed by RAMPO. Binding of Aβ was visualized using 500× diluted anti-Aβ antibodies (mouse antibody beta-amyloid Clone 6F/3D #M0872, lot 00003503, DAKOCytomation; β-amyloid (H-43) SC-9129, 200 μg/ml rabbit polyclonal IgG, Santa Cruz Biotechnology) and RAMPO/SWARPO in a 1:1 ratio. Finally, wells were overlayed with OPD/H2O2 solution, and H2SO4, before absorbance readings at 490 nm.

tPA/plasminogen [2] = target: T1, tPA/plasminogen; test: tPA/plasminogen activation by pre-formed misfolded OVA in the presence of compounds; type: biochemical; conditions: 80-fold or 160-fold diluted compound and misfolded OVA stocks of 1 mg/ml
Method: […] Negative control was buffer without OVA. […] In addition, it was assessed whether the compounds interfere with absorbance readings at 405 nm, with converted chromogenic substrate. […] The yellow solution is divided over wells of an ELISA plate. […] Signals are compared and related to the control.

tPA = tPA (Homo sapiens, UniProt P00750); test: tPA serine protease activity with OVA heated in the presence of compounds (substrate S-2765); type: biochemical; set-up: purchased Boehringer Ingelheim Actilyse; conditions: OVA heated with 1 mg/ml compound, 80-, 160- or 320-fold diluted, 100 nM tPA
Method: For this purpose, the influence of the compounds on heat-denaturation of OVA was analyzed (see above: Thioflavin T fluorescence measurements). Heated OVA at 1 mg/ml in PBS in the presence or absence of 1 mg/ml of the twelve compounds listed in Table 7 in PBS/DMSO (final DMSO concentration 1%) was used 80-fold or 160-fold or 320-fold diluted (final heated OVA concentration and compound concentration was 12.5 or 6.3 or 3.1 μg/ml; final DMSO concentration was 0.013% and 0.006% and 0.003%).

amyloid-β(1-40) E22Q = target: T3, amyloid-β(1-40) E22Q (Homo sapiens, UniProt P05067, E693Q); test: ELISA binding of tPA to immobilized Aβ after pre-incubation with compounds; conditions: for influence on tPA binding to immobilized Aβ: Aβ first overlayed with compound (concentration series), then tPA; for % tPA binding (after compound incubation), Aβ: 1 μg/ml coated Aβ first exposed to 500 μg/ml compound, then 80 nM tPA, control = 100
T3 construct: For similar ELISA's with DOVA and Aβ(1-40) E22Q, 1 μg/ml DOVA or Aβ was coated; purchased Peptide facility, Dutch Cancer Institute, Amsterdam; host or cells: synthetic peptide
Method: Compounds were now diluted 10× in PBS/0.1% Tween20 (500 μg/ml compound). […] With this approach a further selection of the compounds was achieved. Now, compounds that at least interact with HB-AGE are selected. With the selection, similar binding assays are performed with misfolded OVA and Aβ. Finally, concentration series of the selected compounds are used in the binding studies.

Hb-AGE = target: T4, Hb-AGE (Homo sapiens, UniProt P68871+P69905); test: Binding of Hb-AGE from solution to immobilized small compounds
T4 construct: purchased Sigma-Aldrich H7379
Method: as §1

[3] = information found on the www, search completed Spring 2006, cited from earlier work
[4] = target: T5, Hb-AGE (glucose-6-phosphate modified human haemoglobin) (Homo sapiens, UniProt P68871+P69905); test: ELISA binding of tPA to immobilized Hb-AGE, compounds co-incubated with tPA; conditions: compound mixed with tPA, control without compound = 100
T5 construct: purchased Sigma-Aldrich H7379
Method: The small compound library is depicted in Tables 4-5. […] Binding experiments were performed in single wells per compound, in a duplicate experiment. Binding data obtained with this duplicate experiment was averaged.
• 1. […] Coat buffer in control wells. • 2. wash three times with wash buffer • 3. Block all wells with 300 μl 0.5*recommended concentration Roche blocking reagent for 30 minutes at room temperature, with agitation • 4. wash twice • 5. […] Incubate for 30 minutes at room temperature, with agitation • 7. wash five times with TBS/0.1% Tween20 • 8. […] Incubate for 30 minutes at room temperature, with agitation • 10. wash five times with TBS/0.1% Tween20 • 11. Fill wells with 3000× diluted horse raddish peroxidase-labeled polyclonal rabbit anti-mouse antibody (RAMPO, DAKOCytomation) • 12. Incubate for 20 minutes at room temperature, with agitation • 13. Wash five times with TBS/0.1% Tween20 • 14. Wash twice with PBS • 15. Stain with 100 μl TMB, stop with 50 μl 10% H2SO4 • 16. Read absorbance at 450 nm

T4 sequence (P69905 2-142 limits assumed): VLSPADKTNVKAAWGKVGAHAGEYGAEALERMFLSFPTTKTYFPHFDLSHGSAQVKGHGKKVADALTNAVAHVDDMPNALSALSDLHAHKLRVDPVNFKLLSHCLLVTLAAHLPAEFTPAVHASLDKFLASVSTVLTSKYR
T4 sequence (P68871 2-147 limits assumed): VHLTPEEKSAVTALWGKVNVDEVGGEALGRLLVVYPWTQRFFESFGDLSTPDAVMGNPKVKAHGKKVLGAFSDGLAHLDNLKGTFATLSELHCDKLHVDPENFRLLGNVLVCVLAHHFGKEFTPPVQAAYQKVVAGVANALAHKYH
T5 sequence (P69905 2-142 limits assumed): as the sequence (P69905 2-142 limits assumed) above
T5 sequence (P68871 2-147 limits assumed): as the sequence (P68871 2-147 limits assumed) above
T1 sequence (P00750 36-562): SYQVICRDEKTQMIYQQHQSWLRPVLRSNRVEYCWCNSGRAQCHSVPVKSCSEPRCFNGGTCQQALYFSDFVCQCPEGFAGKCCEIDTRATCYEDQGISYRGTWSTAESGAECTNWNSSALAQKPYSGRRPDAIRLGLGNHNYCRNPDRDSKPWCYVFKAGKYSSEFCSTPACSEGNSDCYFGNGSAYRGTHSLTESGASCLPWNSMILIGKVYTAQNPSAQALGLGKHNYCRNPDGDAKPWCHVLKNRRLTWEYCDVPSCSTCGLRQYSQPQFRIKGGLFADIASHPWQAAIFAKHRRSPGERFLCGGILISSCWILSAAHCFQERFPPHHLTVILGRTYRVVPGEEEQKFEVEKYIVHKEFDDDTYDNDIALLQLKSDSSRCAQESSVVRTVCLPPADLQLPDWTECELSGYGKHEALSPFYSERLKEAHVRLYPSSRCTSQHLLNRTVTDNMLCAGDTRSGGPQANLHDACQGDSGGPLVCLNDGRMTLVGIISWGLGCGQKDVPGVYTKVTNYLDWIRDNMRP
tPA, sequence (P00750 36-562): as above

O=c1oc2c(O)c(O)cc3c(=O)oc4c(O)c(O)cc1c4c23 [compound 117, Ellagic acid hydrate]
influence on tPA/plasminogen activation by OVA pre-heated in the presence of compound (tPA/plasminogen [1]): Inhibition of tPA/plasminogen activation by OVA pre-heated
Signal (a.u.) (Aβ; Nunc Maxisorp, coat 100 μg/ml): 0.054 a.u.
influence on tPA/plasminogen activation by pre-formed misfolded OVA (tPA/plasminogen [2]): Full block of tPA/plasminogen activation by misfolded OVA
influence on tPA protease activity of OVA heated in the presence of compound (tPA): Potentiation of tPA protease activity
influence on tPA binding to immobilized Aβ (amyloid-β(1-40) E22Q): Stimulated tPA binding to immobilized misfolded protein (Hb-
Signal (a.u.) (Hb-AGE; Greiner Microlon, coat 100 μg/ml, Hb-AGE 10 μg/ml): 0.13 a.u.
Signal (a.u.) (Hb-AGE; Nunc Maxisorp, coat 100 μg/ml, Hb-AGE 10 μg/ml): 0.15 a.u.

COc1cc2c(cc1OC)-c1c(O)c(OC)cc3c1[C@H](C2)N(C)CC3 [compound 201, Thaliporphine, thalicmidine]
Use or activity in vitro/in vivo ([3]; thalicmidine): increased survival rate of LPS-treated mice; also recorded: suppression of TNFα, NO. and O^2− production; also recorded: stimulated splenocyte proliferation induced by LPS; also recorded: potent vasoconstrictor
% tPA binding (after compound incubation), Aβ (amyloid-β(1-40) E22Q): 400%
% tPA binding to Hb-AGE (co-incubation) [4]: 30%
Signal (a.u.) (Hb-AGE; Nunc Maxisorp, coat 100 μg/ml, Hb-AGE 0.1 μg/ml): 0.55 a.u.

COc1cc2c(cc1O)C[C@H]1c3c(cc(OC)c(O)c3-2)CCN1C [compound 202, Isoboldine]
Signal (a.u.) (Aβ; Nunc Maxisorp, coat 100 μg/ml): 0.11 a.u.
Signal (a.u.) (Aβ; Nunc amino Immobilizer, coat 1 μg/ml): 0.08 a.u.
Use or activity in vitro/in vivo [3]: potency to suppress LPS-induced proliferation in vitro; also recorded: potent antiplasmodial activity
% tPA binding (after compound incubation), Aβ (amyloid-β(1-40) E22Q): 250%
influence on tPA binding to immobilized Aβ (amyloid-β(1-40) E22Q): Stimulated tPA binding to immobilized misfolded protein (Aβ,
% tPA binding to Hb-AGE (co-incubation) [4]: 250%
Signal (a.u.) (Hb-AGE; Nunc Maxisorp, coat 100 μg/ml, Hb-AGE 1 μg/ml): 0.46 a.u.
Signal (a.u.) (Hb-AGE; Nunc amino Immobilizer, coat 1 μg/ml, Hb-AGE 10 μg/ml): 0.20 a.u.
